Here are results for four compounds from US7655643B2, “Antibacterial macrocycles with substituted biphenyl” (AiCuris GmbH & Co. KG, priority 2003, dated 2010).

Assay [1] has as its system S. aureus T17. Put plainly: MIC, liquid dilution test (96-well microtitre plate). The class given is cell-based. The settings on record: for MIC: Staphylococcus aureus, T17, read-out: MIC S. aureus T17. As for the experimental part:
The minimum inhibitory concentration (MIC) is the minimum concentration of an antibiotic with which the growth of a test microbe is inhibited over 18-24 h. The inhibitor concentration can in these cases be determined by standard microbiological methods (see, for example, The National Committee for Clinical Laboratory Standards. Methods for dilution antimicrobial susceptibility tests for bacteria that grow aerobically; approved standard-fifth edition. NCCLS document M7-A5 [ISBN 1-56238-394-9]. NCCLS, 940 West Valley Road, Suite 1400, Wayne, Pa. 19087-1898 USA, 2000). The MIC of the compounds of the invention is determined in the liquid dilution test on the 96-well microtitre plate scale. The bacterial microbes are cultivated in a minimal medium (18.5 mM Na2HPO4, 5.7 mM KH2PO4, 9.3 mM NH4Cl, 2.8 mM MgSO4, 17.1 mM NaCl, 0.033 μg/ml thiamine hydrochloride, 1.2 μg/ml nicotinic acid, 0.003 μg/ml biotin, 1% glucose, 25 μg/ml of each proteinogenic amino acid with the exception of phenylalanine; [H.-P. Kroll; unpublished]) with addition of 0.4% BH broth (test medium). In the case of Enterococcus faecium L4001, heat-inactivated fetal calf serum (FCS; GibcoBRL, Germany) is added to the test medium in a final concentration of 10%. Overnight cultures of the test microbes are diluted to an OD578 of 0.001(to 0.01 in the case of enterococci) in fresh test medium, and incubated 1:1 with dilutions of the test substances (1:2 dilution steps) in test medium (200 μl final volume). The cultures are incubated at 37° C. for 18-24 hours; enterococci in the presence of 5% CO2.
The lowest substance concentration in each case at which bacterial growth was no longer visible is defined as the MIC. […] The compounds show a graded antibacterial effect against most of the test microbes.
The S. aureus strain T17 is isolated in vivo. CFW1 mice are infected intraperitoneally with 4×10^7 S. aureus 133 cells per mouse. 0.5 h after the infection, the animals are treated intravenously with 50 mg/kg biphenomycin B. The kidneys are removed from the surviving animals on day 3 after the infection. After homogenization of the organs, the homogenates are plated out as described for RN4220Bi^R on antibiotic-free and antibiotic-containing agar plates and incubated at 37° C. overnight. […] About 20 of these colonies are tested for the biphenomycin B MIC, and a colony with an MIC of >50 μM is selected for further cultivation, and the strain is referred to as T17.

The target of assay [2] is S. aureus 133 Translation. Put plainly: S. aureus in vitro transcription-translation assay (firefly luciferase, S30 extract). The class given is biochemical. The text has this:
In order to construct a reporter plasmid which can be used in an in vitro transcription -translation assay from S. aureus the plasmid pBESTluc (Promega Corporation, USA) is used. The E. coli tac promoter present in this plasmid in front of the firefly luciferase is replaced by the capA1 promoter with appropriate Shine-Dalgarno sequence from S. aureus. The primers CAPFor 5′-[…] -[…]-3′ and CAPRev 5′-[…]-3′ are used for this. The primer CAPFor contains the capA1 promoter, the ribosome binding site and the 5′ region of the luciferase gene. After PCR using pBESTluc as template it is possible to isolate a PCR product which contains the firefly luciferase gene with the fused capA1 promoter. This is, after restriction with ClaI and HindIII, ligated into the vector pBESTluc which has likewise been digested with ClaI and HindIII. The resulting plasmid pla can be replicated in E. coli and be used as template in the S. aureus in vitro transcription-translation assay.
Six liters of BHI medium are inoculated with a 250 ml overnight culture of a S. aureus strain and allowed to grow at 37° C. until the OD600 nm is 2-4. The cells are harvested by centrifugation and washed in 500 ml of cold buffer A (10 mM Tris acetate, pH 8.0, 14 mM magnesium acetate, 1 mM DTT, 1 M KCl). After renewed centrifugation, the cells are washed in 250 ml of cold buffer A with 50 mM KCl, and the resulting pellets are frozen at −20° C. for 60 min. The pellets are thawed on ice in 30 to 60 min and taken up to a total volume of 99 ml in buffer B (10 mM Tris acetate, pH 8.0, 20 mM magnesium acetate, 1 mM DTT, 50 mM KCl). 1.5 ml lysostaphin (0.8 mg/ml) in buffer B are introduced into 3 precooled centrifuge cups each and each mixed with 33 ml of the cell suspension. The samples are incubated at 37° C., shaking occasionally, for 45 to 60 min, before 150 μl of a 0.5 M DTT solution are added. The lysed cells are centrifuged at 30 000×g and 4° C. for 30 min. The cell pellet is taken up in buffer B and then centrifuged again under the same conditions, and the collected supernatants are combined. The supernatants are centrifuged again under the same conditions, and 0.25 volumes of buffer C (670 mM Tris acetate, pH 8.0, 20 mM magnesium acetate, 7 mM Na3 phosphoenolpyruvate, 7 mM DTT, 5.5 mM ATP, 70 μM amino acids (complete from Promega), 75 μg of pyruvate kinase (Sigma, Germany)/ml are added to the upper ⅔ of the supernatant. The samples are incubated at 37° C. for 30 min. The supernatants are dialysed against 21 of dialysis buffer (10 mM Tris acetate, pH 8.0, 14 mM magnesium acetate, 1 mM DTT, 60 mM potassium acetate) in a dialysis tube with a 3500 Da cut-off with one buffer change at 4° C. overnight. The dialysate is concentrated to a protein concentration of about 10 mg/ml by covering the dialysis tube with cold PEG 8000 powder (Sigma, Germany) at 4° C. The S30 extracts can be stored in aliquots at −70° C.
Inhibition of protein biosynthesis of the compounds can be shown in an in vitro transcription-translation assay. The assay is based on the cell-free transcription and translation of firefly luciferase using the reporter plasmid pla as template and cell-free S30 extracts obtained from S. aureus. The activity of the resulting luciferase can be detected by luminescence measurement.
The amount of S30 extract or plasmid plato be employed must be tested anew for each preparation in order to ensure an optimal concentration in the assay. 3 μl of the substance to be tested, dissolved in 5% DMSO, are introduced into an MTP. Then 10 μl of a suitably concentrated plasmid solution p1 a are added. Then 46 μl of a mixture of 23 μl of premix (500 mM Potassium acetate, 87.5 mM Tris acetate, pH 8.0, 67.5 mM ammonium acetate, 5 mM DTT, 50 μg of folic acid/ml, 87.5 mg of PEG 8000/ml, 5 mM ATP, 1.25 mM each NTP, 20 μM each amino acid, 50 mM PEP (Na3 salt), 2.5 mM cAMP, 250 μg each E. coli tRNA/ml) and 23 μl of a suitable amount of S. aureus S30 extract are added and mixed. […]

Converted amounts (≈) assume the structure as drawn.

In the case of `NC[C@H](O)C[C@@H]1NC(=O)[C@@H](N)Cc2cc(ccc2O)-c2ccc(O)c(c2)C[C@@H](C(=O)O)NC1=O` [Biphenomycin B, biphenomycin B, reference compound], the “MIC, selected colony T17” value in assay [1] (colony isolated in vivo from mouse kidney) is greater than 50 µM. Moreover, the “MIC S. aureus T17” value in assay [1] (liquid dilution, biphenomycin-resistant strain, 18-24 h) was greater than 25 µM. Also, the IC50 in assay [2] (Table A) and in assay [2] (Table B) was 1500 nM each time.

As to `CN1C(=O)[C@H](C[C@@H](O)CN)NC(=O)[C@@H](N)Cc2cc(ccc2O)-c2ccc(Cl)c(c2)C[C@H]1C(=O)NCC(O)CN` (stereo partly shown) [Example 9], the MIC (commonly the lowest concentration found to suppress growth) in assay [1] worked out at 0.7 µM (≈ 0.404 µg/mL). The half-maximal inhibitory concentration (IC50) in assay [2] (Table A) and in assay [2] (Table B) was 300 nM in each case.

Consider `NCCNC(=O)[C@@H]1Cc2cc(ccc2F)-c2ccc(O)c(c2)C[C@H](N)C(=O)N[C@@H](C[C@@H](O)CN)C(=O)N1` [Example 12], for which the MIC in assay [1] amounted to 0.6 µM (≈ 0.31 µg/mL). For the same compound, the IC50 in assay [2] (Table A) and in assay [2] (Table B) was 800 nM throughout.

For `NCCNC(=O)[C@@H]1Cc2cccc(c2)-c2ccc(O)c(c2)C[C@H](N)C(=O)N[C@@H](C[C@@H](O)CN)C(=O)N1` [Example 36, (8S,11S,14S)-14-Amino-N-(2-aminoethyl)-11-[(2R) -3-amino-2-hydroxypropyl]-17-hydroxy-10,13-dioxo-9,12-diazatricyclo-[14.3.1.1^2,6]henicosa-1(20),2(21),3,5,16,18-hexaene-8-carboxamide tri(hydrotrifluoroacetate)], in assay [1], the MIC worked out at 0.8 µM (≈ 0.399 µg/mL). In addition, the IC50 in assay [2] (Table A) and in assay [2] (Table B) was 360 nM in each case.
